In patent US8501238B2, “Anti-infective agents and uses thereof” (priority 2007, dated 2013) one finds melting point, IC50 and EC50 data, which are given here for 4 compounds.

Data set [1] deals with T1, HCV polymerase 1A (Δ21 NS5B) (Hepatitis C virus genotype 1a, UniProt P27958).
T1 construct: 20 to 50nM Δ21 NS5B
Description: HCV Polymerase Inhibition Assay (1a). It counts as biochemical. In short, it runs like this:
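Δ21 NS5B reactions contained 20 μM CTP, 20 μM ATP, 1 μM ³H-UTP and 5 nM template RNA and ran for 2–4 h at room temperature. RNA was then spermine-precipitated, filter-captured and counted by scintillation. IC50 came from a tight-binding (Morrison) nonlinear fit of retained cpm against inhibitor concentration.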

In data set [2] the test system is genotype 1b-Con1 subgenomic replicon cell line. Description: microbe, parasite or virus in culture. It counts as cell-based, HCV. As to conditions: Hepatitis C virus, 72 h, read-out: EC50 1b.
Data set [3] deals with genotype 1a-H77 subgenomic replicon cell line. Description: microbe, parasite or virus in culture. As to conditions: Hepatitis C virus, 72 h, read-out: EC50 1a. It counts as cell-based, HCV.
In data set [4] the target is T2, HCV polymerase 1B (Δ21 NS5B) (Hepatitis C virus genotype 1b, UniProt P26663).
T2 construct: 20 to 50nM Δ21 NS5B
Description: biochemical. In short, it runs like this: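 Inhibitor pre-incubated 15 min at room temperature with Δ21 NS5B (strain BK or H77, 20–50 nM), 60–125 μM GTP, 2 mM MnCl2, pH 7.4. Reaction started with 20 μM CTP, 20 μM ATP, 1 μM 3H-UTP and 5 nM template RNA, run 2–4 h at room temperature. Spermine-precipitated RNA filter-captured and scintillation-counted; IC50 from tight-binding equation fit.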

T1 sequence (P27958 2421-2990, stated change not applied): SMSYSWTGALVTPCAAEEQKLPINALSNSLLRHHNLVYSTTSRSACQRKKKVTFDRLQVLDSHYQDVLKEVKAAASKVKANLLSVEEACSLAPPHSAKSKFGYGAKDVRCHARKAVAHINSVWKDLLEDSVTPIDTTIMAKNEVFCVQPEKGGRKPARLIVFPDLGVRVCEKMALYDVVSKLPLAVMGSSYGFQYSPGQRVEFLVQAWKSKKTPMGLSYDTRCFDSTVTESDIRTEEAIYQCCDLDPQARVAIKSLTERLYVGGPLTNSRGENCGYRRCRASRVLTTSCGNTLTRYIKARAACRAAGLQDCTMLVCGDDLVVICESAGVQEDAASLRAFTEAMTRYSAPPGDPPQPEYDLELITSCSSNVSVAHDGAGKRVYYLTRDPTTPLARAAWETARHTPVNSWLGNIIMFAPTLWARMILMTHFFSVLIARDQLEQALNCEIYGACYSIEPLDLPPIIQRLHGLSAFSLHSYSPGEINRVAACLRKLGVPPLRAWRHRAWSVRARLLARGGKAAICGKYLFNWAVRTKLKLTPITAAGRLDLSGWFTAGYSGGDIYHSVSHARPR
T2 sequence (P26663 2420-2989, stated change not applied): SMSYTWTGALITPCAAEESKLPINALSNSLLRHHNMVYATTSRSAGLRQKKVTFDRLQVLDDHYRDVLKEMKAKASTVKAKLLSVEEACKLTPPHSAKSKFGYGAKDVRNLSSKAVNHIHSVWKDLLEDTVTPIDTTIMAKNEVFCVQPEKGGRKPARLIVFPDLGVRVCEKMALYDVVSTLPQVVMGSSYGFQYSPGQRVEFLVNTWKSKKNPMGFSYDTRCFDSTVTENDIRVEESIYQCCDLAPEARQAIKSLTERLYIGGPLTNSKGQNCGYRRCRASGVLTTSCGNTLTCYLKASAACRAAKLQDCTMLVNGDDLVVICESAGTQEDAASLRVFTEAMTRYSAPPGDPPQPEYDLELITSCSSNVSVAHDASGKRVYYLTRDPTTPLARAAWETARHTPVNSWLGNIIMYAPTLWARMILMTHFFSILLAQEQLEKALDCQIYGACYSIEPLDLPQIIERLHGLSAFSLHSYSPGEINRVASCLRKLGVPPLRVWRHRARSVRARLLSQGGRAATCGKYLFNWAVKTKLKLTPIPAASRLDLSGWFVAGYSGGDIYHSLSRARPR

With `CCOc1c(-c2ccc3cc(NS(C)(=O)=O)ccc3c2)cc(-n2ccc(=O)[nH]c2=O)cc1C(C)(C)C` [IB-L0-2.23, N-(6-(3-tert-butyl-5-(2,4-dioxo-3,4-dihydropyrimidin-1(2H)-yl)-2-ethoxyphenyl)naphthalen-2-yl)methanesulfonamide], the melting point – broadly, the temperature of the solid-liquid transition – was in the range of 196 to 202 °C. The half-maximal inhibitory concentration (IC50) (as a rule, the concentration that gives 50% inhibition) in data set [1] is 0.01 to 0.1 µM. The 50% effective concentration (EC50) (as a rule, the concentration giving half of the maximal effect) in data set [2] is 0.01 to 0.1 µM. The 50% effective concentration (EC50) in data set [3] lay within 0.1 to 1 µM. Besides, the IC50 in data set [4] is below 0.01 µM.

`COc1c(-c2ccc3cc(NS(C)(=O)=O)ccc3c2)cc(-n2ccc(=O)[nH]c2=O)cc1C(C)(C)CO` [IB-L0-2.54, N-(6-(5-(2,4-dioxo-3,4-dihydropyrimidin-1(2H)-yl)-3-(1-hydroxy-2-methylpropan-2-yl)-2-methoxyphenyl)naphthalen-2-yl)methanesulfonamide] showed a melting point of 256 to 257 °C. The compound also had a concentration for half-maximal inhibition (IC50) in data set [1] below 0.01 µM. Besides, the EC50 in data set [2] lay in the range of 0.01 to 0.1 µM. Also, the concentration giving a half-maximal response (EC50) in data set [3] fell in the range of 0.01 to 0.1 µM. This compound also gave an IC50 in data set [4] of 0.01 to 0.1 µM.

`COc1c(-c2ccc3cc(NS(C)(=O)=O)ccc3c2)cc(-n2ccc(=O)[nH]c2=O)cc1-c1ccc(C)o1` [IB-L0-2.58, N-(6-(5-(2,4-dioxo-3,4-dihydropyrimidin-1(2H)-yl)-2-methoxy-3-(5-methylfuran-2-yl)phenyl)naphthalen-2-yl)methanesulfonamide] displayed a melting point of 174 to 178 °C. This compound gave a 50% inhibitory concentration (IC50) in data set [1] below 0.01 µM. Moreover, the EC50 in data set [2] was below 0.01 µM. Also, in data set [3], the EC50 lay in the range of 0.01 to 0.1 µM. The compound also had an IC50 in data set [4] of 0.01 to 0.1 µM.

The compound `COc1c(-c2ccc3cc(NS(C)(=O)=O)ccc3c2)cc(-n2ccc(=O)[nH]c2=O)cc1C(F)(F)C(F)(F)F` [IB-L0-2.60, N-(6-(5-(2,4-dioxo-3,4-dihydropyrimidin-1(2H)-yl)-2-methoxy-3-(perfluoroethyl)phenyl)naphthalen-2-yl)methanesulfonamide] showed a melting point of 162 to 165 °C. Further, the IC50 in data set [1] is below 0.01 µM. Also, the EC50 in data set [2] lay within 0.01 to 0.1 µM. In addition, the concentration giving a half-maximal response (EC50) in data set [3] was 0.1 to 1 µM. The same compound showed a half-maximal inhibitory concentration (IC50) in data set [4] of 0.01 to 0.1 µM.
